Laboratory results: ChEMBL document CHEMBL5360646, “Optimization of M3 Antagonist-PDE4 Inhibitor (MAPI) Dual Pharmacology Molecules for the Treatment of COPD” (J Med Chem, 2023)

Assays:
[1] = biological target: Muscarinic acetylcholine receptor M3 (Homo sapiens, UniProt P20309); experiment: Displacement of [3H]N-methylscopolamine chloride from human muscarinic M3 receptor incubated for 2 hrs by radioligand binding assay
[2] = biological target: 3',5'-cyclic-AMP phosphodiesterase 4B (Homo sapiens, UniProt Q07343); experiment: Inhibition of human recombinant PDE4B2 expressed in baculovirus expression system using cAMP as substrate incubated for 2 hrs by HTRF assay
[3] = Metabolic stability in human plasma assessed as half life at 5 uM and measured upto 180 mins by HPLC-MS/MS analysis; assay type: ADME, cell-free
Rattus norvegicus [4] = experiment: Anti-bronchospastic activity in carbachol-induced bronchospasm Sprague-Dawley rat model assessed as inhibition of carbachol-induced bronchoconstriction administered IT(Intratracheal) for 1 hr prior to carbachol challenge; assay type: functional
Trachea = experiment: Bronchoconstriction activity in Sprague-Dawley rat trachea assessed as inhibition of carbachol-induced tracheal contraction; assay type: functional, tissue-based
[5] = Metabolic stability in rat liver microsomes assessed as intrinsic clerance at 1 uM and measured upto 60 mins by HPLC-MS/MS analysis; assay type: ADME, Microsome; conditions: microsomes, 1 h, 1 µM
Rattus norvegicus [6] = experiment: Anti-bronchospastic activity in carbachol-induced bronchospasm Sprague-Dawley rat model assessed as inhibition of carbachol-induced bronchoconstriction at 30 nmol/kg, IT(Intratracheal) administered 16 hr prior to carbachol challenge; assay type: functional; parameters: scale not given: the % may be the effect or the level left
Rattus norvegicus [7] = experiment: Anti-bronchospastic activity in carbachol-induced bronchospasm Sprague-Dawley rat model assessed as inhibition of carbachol-induced bronchoconstriction at 30 nmol/kg, IT(Intratracheal) administered 1 hr prior to carbachol challenge; assay type: functional; parameters: scale not given: the % may be the effect or the level left
[8] = Antiinflammatory activity against LPS-stimulated human PBMC cells assessed reduction in TNFalpha level incubated for 18 hrs by ELISA analysis; assay type: functional, cell-based; conditions: for IC50: Homo sapiens, PBMC, 18 h; for pIC50: pbmc
[9] = Metabolic stability in human lung S9 fraction assessed as half life at 1 uM and measured upto 60 mins in presence of NADPH by LC-MS/MS analysis; assay type: ADME, subcellular
[10] = Metabolic stability in human liver microsomes assessed as intrinsic clerance at 1 uM and measured upto 60 mins by HPLC-MS/MS analysis; assay type: ADME, Microsome
[11] = Metabolic stability in rat lung S9 fraction assessed as half life at 1 uM and measured upto 60 mins in presence of NADPH by LC-MS/MS analysis; assay type: ADME, subcellular
[12] = Metabolic stability in rat plasma assessed as half life at 5 uM and measured upto 180 mins by HPLC-MS/MS analysis; assay type: ADME, cell-free
[13] = Ratio of ED50 for Anti-inflammatory activity against OVA-sensitized Brown-Norway rat airway inflammation model to ED50 for Anti-bronchospastic activity in carbachol-induced bronchospasm Sprague-Dawley rat model; assay type: functional
Rattus norvegicus [14] = experiment: Anti-bronchospastic activity in carbachol-induced bronchospasm Sprague-Dawley rat model assessed as inhibition of carbachol-induced bronchoconstriction at 10 nmol/kg, IT(Intratracheal) administered 16 hr prior to carbachol challenge; assay type: functional; parameters: scale not given: the % may be the effect or the level left
Rattus norvegicus [15] = experiment: Anti-inflammatory activity against OVA-sensitized Brown-Norway rat airway inflammation model assessed as inhibition of OVA-induced eosinophil influx administered IT(Intratracheal) 2 hrs prior to OVA challenge; assay type: functional
Rattus norvegicus [16] = experiment: Anti-bronchospastic activity in carbachol-induced bronchospasm Sprague-Dawley rat model assessed as inhibition of carbachol-induced bronchoconstriction at 10 nmol/kg, IT(Intratracheal) administered 1 hr prior to carbachol challenge; assay type: functional; parameters: scale not given: the % may be the effect or the level left
Rattus norvegicus [17] = experiment: Anti-inflammatory activity against OVA-sensitized Brown-Norway rat airway inflammation model assessed as inhibition of OVA-induced eosinophil influx at 1000 nmol/kg,IT(Intratracheal) pretreated 24 hrs prior to OVA challenge and measured after 48 hrs by automated cell counter analysis; assay type: functional; parameters: scale not given: the % may be the effect or the level left; conditions: time 72 hrs
Rattus norvegicus [18] = experiment: Anti-inflammatory activity against OVA-sensitized Brown-Norway rat airway inflammation model assessed as inhibition of OVA-induced eosinophil influx at 100 nmol/kg,IT(Intratracheal) pretreated 2 hrs prior to OVA challenge by automated cell counter analysis; assay type: functional; parameters: scale not given: the % may be the effect or the level left
[19] = Toxicity in ferret assessed as emetic response at 10 nmol/kg, IT(Intratracheal) and measured for 4 hrs by behavioral analysis; parameters: species or system Mustela putorius furo; conditions: in vivo, inhaled_or_intranasal
[20] = Toxicity in ferret assessed as appearance of nausea-like behavior at 10 nmol/kg, IT(Intratracheal) and measured for 4 hrs by behavioral analysis; parameters: species or system Mustela putorius furo; conditions: in vivo, inhaled_or_intranasal
[21] = Toxicity in ferret assessed as appearance of nausea-like behavior at 10 nmol/kg,po and measured for 4 hrs by behavioral analysis; parameters: species or system Mustela putorius furo; conditions: in vivo
[22] = Toxicity in ferret assessed as emetic response at 10 nmol/kg,po and measured for 4 hrs by behavioral analysis; parameters: species or system Mustela putorius furo; conditions: in vivo
[23] = Toxicity in pilocarpine hydrochloride induced salivation Sprague-Dawley rat model assessed as inhibition of salivary secretion at 3 mM,INH for 10 mins; conditions: Sprague-Dawley, in vivo, inhaled or intranasal, read-out: Activity

Sequence of 3',5'-cyclic-AMP phosphodiesterase 4B (Q07343 whole entry): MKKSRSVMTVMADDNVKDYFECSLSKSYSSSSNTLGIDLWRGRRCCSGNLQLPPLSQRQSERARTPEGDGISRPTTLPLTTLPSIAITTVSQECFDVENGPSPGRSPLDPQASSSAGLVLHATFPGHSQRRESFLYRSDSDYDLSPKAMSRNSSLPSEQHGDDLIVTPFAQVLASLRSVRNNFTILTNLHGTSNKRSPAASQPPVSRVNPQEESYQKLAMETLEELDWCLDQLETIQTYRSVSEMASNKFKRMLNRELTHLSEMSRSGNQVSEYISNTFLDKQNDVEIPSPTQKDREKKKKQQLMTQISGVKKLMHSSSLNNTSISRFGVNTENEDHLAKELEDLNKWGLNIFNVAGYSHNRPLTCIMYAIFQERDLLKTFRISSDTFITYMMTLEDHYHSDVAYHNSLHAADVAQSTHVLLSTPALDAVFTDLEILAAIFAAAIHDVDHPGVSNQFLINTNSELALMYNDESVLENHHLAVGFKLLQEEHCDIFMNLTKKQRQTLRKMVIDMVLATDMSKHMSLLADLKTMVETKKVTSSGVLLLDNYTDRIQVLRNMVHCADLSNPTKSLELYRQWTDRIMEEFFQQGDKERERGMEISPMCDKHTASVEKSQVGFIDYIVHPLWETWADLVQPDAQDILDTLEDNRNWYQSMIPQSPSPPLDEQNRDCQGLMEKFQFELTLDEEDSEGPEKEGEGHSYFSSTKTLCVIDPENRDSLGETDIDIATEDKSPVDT
Sequence of Muscarinic acetylcholine receptor M3 (P20309 whole entry): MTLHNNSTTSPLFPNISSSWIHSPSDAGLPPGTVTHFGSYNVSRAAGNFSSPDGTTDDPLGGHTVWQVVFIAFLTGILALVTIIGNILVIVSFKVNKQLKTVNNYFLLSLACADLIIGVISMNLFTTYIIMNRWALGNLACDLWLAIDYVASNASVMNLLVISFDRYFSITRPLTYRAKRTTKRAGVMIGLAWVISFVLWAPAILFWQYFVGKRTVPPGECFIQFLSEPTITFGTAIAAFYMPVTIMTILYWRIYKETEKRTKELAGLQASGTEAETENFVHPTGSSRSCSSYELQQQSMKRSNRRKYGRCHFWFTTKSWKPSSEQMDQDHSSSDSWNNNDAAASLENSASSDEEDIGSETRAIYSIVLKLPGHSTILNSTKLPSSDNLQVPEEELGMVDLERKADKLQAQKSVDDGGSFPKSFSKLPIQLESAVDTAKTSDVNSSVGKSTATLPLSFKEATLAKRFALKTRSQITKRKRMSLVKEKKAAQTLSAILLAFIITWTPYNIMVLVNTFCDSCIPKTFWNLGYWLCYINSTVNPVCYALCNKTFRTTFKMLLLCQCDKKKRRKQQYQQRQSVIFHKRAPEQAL

CCC(NCc1ccc(C(=O)O[C@@H](Cc2c(Cl)c[n+]([O-])cc2Cl)c2ccc(OC)c(OC)c2)s1)(C(=O)O[C@H]1CN2CCC1CC2)c1ccccc1 (stereo in doubt; 2s)
Ki [1]: 3980 pM | IC50 [2]: 3160 pM

COc1ccc([C@H](Cc2c(Cl)c[n+]([O-])cc2Cl)OC(=O)c2ccc(CNC(CO)(C(=O)O[C@H]3CN4CCC3CC4)c3ccccc3)s2)cc1OC (stereo in doubt; 3f)
half-life at 5 µM [3]: > 4 h | ED50 (Rattus norvegicus [4]): 2.9 nmol/kg | Ki [1]: 631 pM | pIC50 (Trachea): 7.4 | CLH [5]: 32 µL/min/mg | Activity (Rattus norvegicus [6]): 28% | Activity (Rattus norvegicus [7]): 88% | IC50 [8]: 501 pM | half-life at 1 µM ([9]; lung S9 fraction): 1.32 h | IC50 [2]: 631 pM | microsomal CLint at 1 µM ([10]; liver microsomes, read-out: CLH): 331 µL/min/mg | half-life at 1 µM ([11]; lung S9 fraction): 1.37 h | half-life at 5 µM [12]: 2.1 h

COc1ccc([C@H](Cc2c(Cl)c[n+]([O-])cc2Cl)OC(=O)c2ccc(CNC(CO)(C(=O)O[C@H]3CN4CCC3CC4)c3ccccc3)s2)cc1OC (stereo in doubt; 3s)
Ratio ED50 [13]: 20 | ED50 (Rattus norvegicus [4]): 0.8 nmol/kg | Ki [1]: 200 pM | pIC50 (Trachea): 8.4 | CLH [5]: 189 µL/min/mg | pIC50 [8]: 9.2 | Activity (Rattus norvegicus [14]): 82% | ED50 (Rattus norvegicus [15]): 0.016 µmol/kg | t1/2 ([9]; s9, 1 h, 1 µM, 1 h): 1.3 h | IC50 [2]: 501 pM | CLH ([10]; microsomes, 1 h, 1 µM): 196 µL/min/mg | t1/2 ([11]; s9, 1 h, 1 µM, 1 h): 1.38 h | t1/2 ([12]; 3 h, 5 µM): 1.95 h | Activity (Rattus norvegicus [16]): 81%

COCC(NCc1ccc(C(=O)O[C@@H](Cc2c(Cl)c[n+]([O-])cc2Cl)c2ccc(OC)c(OC)c2)s1)(C(=O)O[C@H]1CN2CCC1CC2)c1ccccc1 (stereo in doubt; 4f)
Ki [1]: 3160 pM | IC50 [2]: 1000 pM

COCC(NCc1ccc(C(=O)O[C@@H](Cc2c(Cl)c[n+]([O-])cc2Cl)c2ccc(OC)c(OC)c2)s1)(C(=O)O[C@H]1CN2CCC1CC2)c1ccccc1 (stereo in doubt; 4s)
Ki [1]: 5010 pM | IC50 [2]: 1580 pM

COc1ccc([C@H](Cc2c(Cl)c[n+]([O-])cc2Cl)OC(=O)c2ccc(CNC(CO)(C(=O)O[C@H]3CN4CCC3CC4)c3ccccc3)c(OCC3CC3)c2)cc1OC (stereo in doubt; 9f)
Ki [1]: 31600 pM | IC50 [2]: 501 pM

COc1ccc([C@H](Cc2c(Cl)c[n+]([O-])cc2Cl)OC(=O)c2ccc(CNC(CO)(C(=O)O[C@H]3CN4CCC3CC4)c3ccccc3)c(OCC3CC3)c2)cc1OC (stereo in doubt; 9s)
Ki [1]: > 50100 pM | IC50 [2]: 794 pM

COc1ccc([C@H](Cc2c(Cl)c[n+]([O-])cc2Cl)OC(=O)c2ccc(CNC(CO)(C(=O)O[C@H]3CN4CCC3CC4)c3ccccc3)s2)cc1OCC1CC1 (stereo in doubt; 11f)
ED50 (Rattus norvegicus [4]; Rattus norvegicus, Sprague-Dawley, read-out: ED50): 7.9 nmol/kg | Ki [1]: 398 pM | pIC50 (Trachea): 7 | Activity (Rattus norvegicus [7]): 80% | IC50 [8]: 1580 pM | IC50 [2]: 794 pM

COc1ccc([C@H](Cc2c(Cl)c[n+]([O-])cc2Cl)OC(=O)c2ccc(CNC(CO)(C(=O)O[C@H]3CN4CCC3CC4)c3ccccc3)s2)cc1OCC1CC1 (stereo in doubt; 11s)
Ki [1]: 251 pM | pIC50 (Trachea): 7.8 | pIC50 [8]: 8.5 | IC50 [2]: 1260 pM

C[C@@H]1C[C@H]2[C@@H]3C[C@H](F)C4=CC(=O)C=C[C@]4(C)[C@@]3(F)[C@@H](O)C[C@]2(C)[C@@]1(OC(=O)c1ccco1)C(=O)SCF [FLUTICASONE FUROATE]
Activity (Rattus norvegicus [17]): >100% | Activity (Rattus norvegicus [18]): >100%

O=C(Nc1c(Cl)cncc1Cl)c1ccc(OC(F)F)c(OCC2CC2)c1 [ROFLUMILAST]
Activity [19]: Toxic | Activity [20]: Toxic | Activity [21]: Toxic | Activity [22]: Toxic

C[N+]1(C)[C@@H]2C[C@@H](OC(=O)C(O)(c3cccs3)c3cccs3)C[C@H]1[C@@H]1O[C@@H]12 [TIOTROPIUM]
inhibition at 10 min, 3000 µM [23]: 62%
